# PMC9944328 (Nature Communications, 2023)
# Key:
# GH3 cells = test: Cell apoptosis assay, Annexin V-FITC/PI flow cytometry, GH3 cells overexpressing SSTR2, 48 h; format: cell-based, rat
# Method: The rat pituitary GH3 cells (ATCC, CCL-82.1) were seeded in 12-well plates at 1.5 × 10^5/well. […] Then, the cells were collected for the apoptosis assay according to the instruction of the Annexin V-FITC/PI apoptosis detection kit (BD Biosciences). Briefly, the cells were washed with cold PBS and resuspended in 1 × binding buffer. Then, 5 μl of Annexin V-FITC was added and incubated for 10 min and stained with 5 μl of PI for 5 min in the dark at room temperature. All samples were acquired by a Novocyte flow cytometer (ACEA Biosciences, China), and data were analyzed with NovoExpress^TM software.
# SSTR2 mutants [1] = biological target: SSTR2 mutants (Homo sapiens, UniProt P30874, P220A); test: Bystander BRET endosomal trafficking (β-arrestin 1-Nluc, FYVE-mVenus), HEK293 (SSTR2 mutants); conditions: for Bottom: Best-fit values;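 as to Bottom: percent of maximal wild-type response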;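 as to Span: percent of maximal wild-type response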;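 as to Top: percent of maximal wild-type response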;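 as to all read-outs here: Read-out is the BRET ratio between Nluc-fused β-arrestin 1 and the early endosome marker FYVE-mVenus, measured after ligand addition with coelenterazine h as substrate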
# Sequence of SSTR2 mutants (Homo sapiens, UniProt P30874, P220A) (P30874 whole entry P220A, the tested form may be a part): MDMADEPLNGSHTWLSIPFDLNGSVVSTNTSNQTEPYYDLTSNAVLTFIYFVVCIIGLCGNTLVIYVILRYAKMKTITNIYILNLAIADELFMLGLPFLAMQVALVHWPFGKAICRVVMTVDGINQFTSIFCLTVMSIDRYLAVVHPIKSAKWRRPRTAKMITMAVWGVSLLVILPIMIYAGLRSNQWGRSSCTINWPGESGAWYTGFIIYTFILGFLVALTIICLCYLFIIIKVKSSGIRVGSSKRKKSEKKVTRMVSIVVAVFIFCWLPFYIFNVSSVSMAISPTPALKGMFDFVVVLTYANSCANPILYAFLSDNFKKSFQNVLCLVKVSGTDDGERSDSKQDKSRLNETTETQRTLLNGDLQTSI
# Method: (§1) Wild-type or mutant SSTR2, β-arrestin 1-Nluc and FYVE-mVenus were co-transfected in HEK293 cells at a ratio of 1:0.5:4 on six-well plates. The next day, the transfected cells were plated on white 96-well and incubated overnight, and then cells were incubated with 90 µL HBSS containing 20 mM HEPES and coelenterazine h (5 µM) at room temperature for 40 min. After incubation, ligand was added and the signal was measured using the Synergy H1 microplate reader (BioTek) to determine a BRET ratio.
# SSTR2 mutants [2] = test: as above
# Method: as §1
# SSTR2 mutants [3] = biological target: SSTR2 mutants (Homo sapiens, UniProt P30874, W269A); test: as above; conditions: for Bottom: Best-fit values
# Sequence of SSTR2 mutants (Homo sapiens, UniProt P30874, W269A) (P30874 whole entry W269A): as the sequence (P30874 whole entry P220A, the tested form may be a part) above, with A220P, W269A counted along it
# Method: as §1
# SSTR2 mutants [4] = biological target: SSTR2 mutants (Homo sapiens, UniProt P30874, Y312A); test: as above; conditions: Best-fit values
# Sequence of SSTR2 mutants (Homo sapiens, UniProt P30874, Y312A) (P30874 whole entry Y312A): as the sequence (P30874 whole entry P220A, the tested form may be a part) above, with A220P, Y312A counted along it
# Method: as §1
# SSTR2 mutants [5] = biological target: SSTR2 mutants (Homo sapiens, UniProt P30874, I130A); test: as above; conditions: HEK293
# Sequence of SSTR2 mutants (Homo sapiens, UniProt P30874, I130A) (P30874 whole entry I130A): as the sequence (P30874 whole entry P220A, the tested form may be a part) above, with I130A, A220P counted along it
# Method: as §1
# SSTR2 mutants [6] = biological target: SSTR2 mutants (Homo sapiens, UniProt P30874, F265A); test: as above; conditions: HEK293
# Sequence of SSTR2 mutants (Homo sapiens, UniProt P30874, F265A) (P30874 whole entry F265A): as the sequence (P30874 whole entry P220A, the tested form may be a part) above, with A220P, F265A counted along it
# Method: as §1
# SSTR2 mutants [7] = biological target: SSTR2 mutants (Homo sapiens, UniProt P30874, I284A); test: as above; conditions: for Bottom: Best-fit values
# Sequence of SSTR2 mutants (Homo sapiens, UniProt P30874, I284A) (P30874 whole entry I284A): as the sequence (P30874 whole entry P220A, the tested form may be a part) above, with A220P, I284A counted along it
# Method: as §1
# SSTR2 mutants [8] = biological target: SSTR2 mutants (Homo sapiens, UniProt P30874, K291A); test: as above; conditions: for Bottom: best-fit
# Sequence of SSTR2 mutants (Homo sapiens, UniProt P30874, K291A) (P30874 whole entry K291A): as the sequence (P30874 whole entry P220A, the tested form may be a part) above, with A220P, K291A counted along it
# Method: as §1
# SSTR2 mutants [9] = biological target: SSTR2 mutants (Homo sapiens, UniProt P30874, R140A); test: as above; conditions: Best-fit values
# Sequence of SSTR2 mutants (Homo sapiens, UniProt P30874, R140A) (P30874 whole entry R140A): as the sequence (P30874 whole entry P220A, the tested form may be a part) above, with R140A, A220P counted along it
# Method: as §1
structure (smiles),measurement,setting,value
C[C@@H](O)[C@@H]1NC(=O)[C@H](CCCCN)NC(=O)[C@@H](Cc2c[nH]c3ccccc23)NC(=O)[C@H](Cc2ccccc2)NC(=O)[C@@H](NC(=O)[C@H](N)Cc2ccccc2)CSSC[C@@H](C(=O)N[C@H](CO)[C@@H](C)O)NC1=O [octreotide],Proapoptotic activity,GH3 cells,able to activate proapoptotic pathways
same,Bottom,SSTR2 mutants [1]; P220A-1,-11.09
same,Bottom,SSTR2 mutants [1]; P220A-2,6.493
same,Emax,SSTR2 mutants [1]; HEK293,20.3 ± 8.01%
same,LogEC50,"SSTR2 mutants [2]; Best-fit values, I284A-1",-6.559
same,Top,"SSTR2 mutants [2]; Best-fit values, I284A-1",94.85
same,LogEC50,"SSTR2 mutants [2]; Best-fit values, I284A-2",-7.171
same,Top,"SSTR2 mutants [2]; Best-fit values, I284A-2",92.19
same,LogEC50,"SSTR2 mutants [2]; Best-fit values, P220A-1",-6.023
same,Span,"SSTR2 mutants [2]; Best-fit values, P220A-1",31.36
same,Top,"SSTR2 mutants [2]; Best-fit values, P220A-1",20.27
same,LogEC50,"SSTR2 mutants [2]; Best-fit values, P220A-2",-7.589
same,Span,"SSTR2 mutants [2]; Best-fit values, P220A-2",32.52
same,Top,"SSTR2 mutants [2]; Best-fit values, P220A-2",39.01
same,LogEC50,"SSTR2 mutants [2]; Best-fit values, R140A-1",-8.238
same,Span,"SSTR2 mutants [2]; Best-fit values, R140A-1",48.38
same,Top,"SSTR2 mutants [2]; Best-fit values, R140A-1",48.39
same,LogEC50,"SSTR2 mutants [2]; Best-fit values, R140A-2",-8.282
same,Span,"SSTR2 mutants [2]; Best-fit values, R140A-2",47.34
same,Top,"SSTR2 mutants [2]; Best-fit values, R140A-2",46.25
same,EC50,"SSTR2 mutants [2]; Best-fit values, W269A-1",0.642 nM
same,LogEC50,"SSTR2 mutants [2]; Best-fit values, W269A-1",-9.192
same,Span,"SSTR2 mutants [2]; Best-fit values, W269A-1",18.76
same,Top,"SSTR2 mutants [2]; Best-fit values, W269A-1",18.02
same,EC50,"SSTR2 mutants [2]; Best-fit values, W269A-2",0.132 nM
same,LogEC50,"SSTR2 mutants [2]; Best-fit values, W269A-2",-9.88
same,Span,"SSTR2 mutants [2]; Best-fit values, W269A-2",17.57
same,Top,"SSTR2 mutants [2]; Best-fit values, W269A-2",14.3
same,EC50,"SSTR2 mutants [2]; Best-fit values, Y312A-1",10.2 nM
same,LogEC50,"SSTR2 mutants [2]; Best-fit values, Y312A-1",-7.991
same,Span,"SSTR2 mutants [2]; Best-fit values, Y312A-1",45.08
same,Top,"SSTR2 mutants [2]; Best-fit values, Y312A-1",45.64
same,EC50,"SSTR2 mutants [2]; Best-fit values, Y312A-2",10.3 nM
same,LogEC50,"SSTR2 mutants [2]; Best-fit values, Y312A-2",-7.988
same,Span,"SSTR2 mutants [2]; Best-fit values, Y312A-2",40.73
same,Top,"SSTR2 mutants [2]; Best-fit values, Y312A-2",40.06
same,Internalization of microswitch mutants,SSTR2 mutants [2]; alanine substitution of microswitch residues,reduced receptor internalization
same,EC50,"SSTR2 mutants [2]; best-fit, I284A-1, run 1",276 nM
same,Span,"SSTR2 mutants [2]; best-fit, I284A-1, run 1",93.85
same,EC50,"SSTR2 mutants [2]; best-fit, I284A-2, run 2",67.5 nM
same,Span,"SSTR2 mutants [2]; best-fit, I284A-2, run 2",82.28
same,EC50,"SSTR2 mutants [2]; best-fit, K291A-1, run 1",1610 nM
same,LogEC50,"SSTR2 mutants [2]; best-fit, K291A-1, run 1",-5.793
same,Span,"SSTR2 mutants [2]; best-fit, K291A-1, run 1",78.24
same,Top,"SSTR2 mutants [2]; best-fit, K291A-1, run 1",68.05
same,EC50,"SSTR2 mutants [2]; best-fit, K291A-2, run 2",615 nM
same,LogEC50,"SSTR2 mutants [2]; best-fit, K291A-2, run 2",-6.211
same,Span,"SSTR2 mutants [2]; best-fit, K291A-2, run 2",78.94
same,Top,"SSTR2 mutants [2]; best-fit, K291A-2, run 2",80.99
same,Bottom,SSTR2 mutants [3]; W269A-1,-0.7468
same,Bottom,SSTR2 mutants [3]; W269A-2,-3.268
same,Emax,SSTR2 mutants [3]; HEK293,14.5 ± 3.19%
same,Bottom,SSTR2 mutants [4]; Y312A-1,0.5637
same,Bottom,SSTR2 mutants [4]; Y312A-2,-0.6682
same,Emax,SSTR2 mutants [5],68.2 ± 4.05%
same,Emax,SSTR2 mutants [6],56.1 ± 4.14%
same,Bottom,SSTR2 mutants [7]; I284A-1,1.002
same,Bottom,SSTR2 mutants [7]; I284A-2,9.91
same,Emax,SSTR2 mutants [7]; HEK293,94.8 ± 4.62%
same,Emax,SSTR2 mutants [8]; HEK293,68 ± 8.22%
same,Bottom,"SSTR2 mutants [8]; K291A-1, run 1",-10.2
same,Bottom,"SSTR2 mutants [8]; K291A-2, run 2",2.053
same,Bottom,SSTR2 mutants [9]; R140A-1,0.00472
same,Bottom,SSTR2 mutants [9]; R140A-2,-1.087
